In patent publication US20160060352A1, “COMPOSITIONS AND METHODS FOR DETECTION AND TREATMENT OF HEPA[…]” (VIVENTIA BIO INC., priority 2013, published 2016):
In brackets after ≈: the same amount, converted by molar mass.

What was measured:
[1] = system: HuH-7; assay: MTS cell growth assay, HuH-7; assay type: cell-based; conditions: Homo sapiens, 48 h incubation
Description: (§3) Human HCC cell lines Hep3B, PLC/PRF/5, and SK-Hep1 were obtained from the American Type Culture Collection (Manassas, Va., USA). Other human HCC cell lines HuH-7, HuH-1, HepG2, HLE, and HLF were obtained from the Human Science Research Resources Bank (Osaka, Japan). HuH-7, HepG2, Hep3B, and SK-Hep1 cells were cultured in log growth phase in 1640 RPMI (Invitrogen, Carlsbad, Calif.) and HuH-1, HLE, HLF, and PLC/PRF/5, cells were cultured in Dulbecco's modified Eagle medium (Invitrogen) with 5% fetal bovine serum (Sigma, St. Louis, Mo.) for HLF cells or 10% FBS for the remaining cell lines. All media were supplemented with 1% PenStrep (Sigma). […] All cell lines were cultivated in a humidified incubator at 37° C. in 5% carbon dioxide and harvested with 0.05% trypsin-0.03% EDTA (Invitrogen).
(§4) HCC cell lines were seeded in 96-well plates at 3×10^3 cells per well in a total volume of 50 μl of culture media. […] Cell viability was monitored using CellTiter 96 AQueous One Solution Cell Proliferation Assay Kit (Promega) and half-maximal inhibitory concentration (IC50) values were calculated. The mean values and standard deviations of IC50 were calculated in triplicate for each cell line. […] Each analysis was performed in triplicate, and the data expressed as means±standard deviations.

[2] = system: HepG2; assay: MTS cell growth assay, HepG2; assay type: cell-based; conditions: Homo sapiens, 48 h incubation
Description: as §3, §4

[3] = system: Hep3B; assay: MTS cell growth assay, Hep3B; assay type: cell-based; conditions: Homo sapiens, 48 h incubation
Description: as §3, §4

[4] = system: HuH-1; assay: MTS cell growth assay, HuH-1; assay type: cell-based; conditions: Homo sapiens, 48 h incubation
Description: as §3, §4

[5] = system: HLE; assay: MTS cell growth assay, HLE; assay type: cell-based; conditions: Homo sapiens, 48 h incubation
Description: (§1) Human HCC cell lines Hep3B, PLC/PRF/5, and SK-Hep1 were obtained from the American Type Culture Collection (Manassas, Va., USA). Other human HCC cell lines HuH-7, HuH-1, HepG2, HLE, and HLF were obtained from the Human Science Research Resources Bank (Osaka, Japan). HuH-7, HepG2, Hep3B, and SK-Hep1 cells were cultured in log growth phase in 1640 RPMI (Invitrogen, Carlsbad, Calif.) and HuH-1, HLE, HLF, and PLC/PRF/5, cells were cultured in Dulbecco's modified Eagle medium (Invitrogen) with 5% fetal bovine serum (Sigma, St. Louis, Mo.) for HLF cells or 10% FBS for the remaining cell lines. All media were supplemented with 1% PenStrep (Sigma). […]
(§2) HCC cell lines were seeded in 96-well plates at 3×10^3 cells per well in a total volume of 50 μl of culture media. […] Cell viability was monitored using CellTiter 96 AQueous One Solution Cell Proliferation Assay Kit (Promega) and half-maximal inhibitory concentration (IC50) values were calculated. The mean values and standard deviations of IC50 were calculated in triplicate for each cell line. […] The remaining viable cells were counted using a Cytorecon (GE Healthcare) after staining with trypan blue to exclude the dead cells. Each analysis was performed in triplicate, and the data expressed as means±standard deviations.

[6] = system: HLF; assay: MTS cell growth assay, HLF; assay type: cell-based; conditions: Homo sapiens, 48 h incubation
Description: as §1, §2

[7] = system: PLC/PRF/5; assay: MTS cell growth assay, PLC/PRF/5; assay type: cell-based; conditions: Homo sapiens, 48 h incubation
Description: as §1, §2

[8] = system: SK-Hep1 cells; assay: MTS cell growth assay, SK-Hep1; assay type: cell-based; conditions: Homo sapiens, 48 h incubation
Description: as §1, §2

[9] = system: Ep-CAM^low cell lines; assay: Cell proliferation assay (viable cell count, trypan blue), Ep-CAM^low cell lines; assay type: cell-based, human; conditions: VB4-845 10 pM and 5-FU 1-5 μg/ml, 48 h; p>0.05
Description: (A) Expression of Ep-CAM was analyzed by flow cytometry in 8 HCC cell lines. […] Cell growth was measured in MTS assays. […] Columns, alive cells (%); vertical bars, standard deviation.
as §2, with “line. To investigate cell viability, HCC cell lines were seeded in 6-well plates at 1×10^5 cells per well in a total volume of 2 ml of culture media.” for “line.”

[10] = system: Ep-CAM^high cell lines (HuH-7, HepG2, Hep3B and HuH-1); assay: Sphere formation assay; assay type: cell-based, human; conditions: 48 h treatment (VB4-845 1-10 pM, 5-FU 1-5 μg/ml), 7 days of culture
Description: Briefly, 1×10^6 cells of HuH-7, HepG2, Hep3B and HuH-1 were seeded in four 10 cm dishes. […] After 48h, the medium was changed to drug-free medium and incubated for 24 h. After cell viability was confirmed by trypan blue exclusion, the remaining viable cells were collected and plated separately at 1×10^2 cells in low attachment plates (96-well Ultra Low Cluster Plate; Costar, Corning, N.Y.), and incubated in serum-free Dulbecco's modified Eagle medium/F12 medium (Invitrogen). Sphere formation was observed using AxioObserver (Carl Zeiss, Oberkochen, Germany), and the images were acquired digitally using AxioVision software (Carl Zeiss).

[11] = system: CD133; assay: FACS analysis of stem/progenitor marker CD133 after treatment; assay type: cell-based, human; conditions: HuH-7, HepG2, and Hep3B cells, compared with the control
Description: (§5) For flow cytometry, FACSCanto™ II (BD Biosciences, San Jose, Calif.) was used. Cancer cells were washed with phosphate-buffered saline, and then enzymatically dissociated with 0.05% trypsin-EDTA (Invitrogen). The trypsinized cells were suspended in FACS buffer, and analyzed on FACSCanto™ II using FACSDiva software (BD Biosciences). For the analysis of hepatic stem/progenitor markers, primary antibodies against Ep-CAM (#324206; Biolegend, San Diego, Calif.), CD13 (#555394; BD Pharmingen), CD44 (#555479; BD Pharmingen), CD90 (#328110; BioLegend), CD133 (#130-080-801; Miltenyi Biotec, Gladbach, Germany), Mouse IgG1 κtype (#555749; BioLegend), and Mouse IgG2b κtype (#400314; BioLegend) were used. All antibodies were conjugated directly with phycoerythrin (PE). The immunostaining and analysis were performed according to the instructions from the manufacturer.

[12] = system: CD13; assay: FACS analysis of stem/progenitor marker CD13 after treatment; assay type: cell-based, human; conditions: HuH-7 and Hep3B cells
Description: as §5

[13] = system: HuH-7 subcutaneous xenografts; assay: Subcutaneous xenograft model; assay type: in vivo, NOD.CB17-PRkdcScid/J mice; conditions: three weeks after initiation; VB4-845 30 μg/kg i.v., 5-FU 30 mg/kg i.p., three times a week for 2 weeks
Description: Twenty five-week-old female NOD.CB17-PRkdcScid/J mice purchased from Charles River Laboratory Inc. (Kanagawa, Japan) were injected with 1×10^6 HuH-7 cells mixed with the same amount of Matrigel (BD Biosciences) subcutaneously into the both flanks of mice under anesthesia. […] Tumor size was measured using calipers three times a week and tumor volumes calculated using the following equation: volume=(length)×(width)2×0.5. The mice were sacrificed three weeks after the initiation of treatment.

## O=c1[nH]cc(F)c(=O)[nH]1 [5-FU, 5-fluorouracil]
[1]
  IC50: 0.8 ± 0.1 µg/mL (≈ 6.15 µM)
[2]
  IC50: 39.5 ± 9.6 µg/mL (≈ 304 µM)
[3]
  IC50: 5.9 ± 1.8 µg/mL (≈ 45.4 µM)
[4]
  IC50: 11.3 ± 6.3 µg/mL (≈ 86.9 µM)
[5]
  IC50: 16.5 ± 6.6 µg/mL (≈ 127 µM)
[6]
  IC50: 33.5 ± 17.2 µg/mL (≈ 258 µM)
[7]
  IC50: 55.6 ± 11.2 µg/mL (≈ 427 µM)
[8]
  IC50: 4.3 ± 0.5 µg/mL (≈ 33.1 µM)
[9]
  cell proliferation (alive cells): suppressed cell proliferation to the same extent as the combination of VB4-845 and 5-FU
[10]
  sphere formation by surviving cells: formed spheres
[11]
  positive rate of CD133: significantly increased
[12]
  positive rate of CD13: significantly increased
[13]
  volume of tumors: 555±147 mm^3
